Measurements published in patent US20240139260A1, “MICROBIAL STRAIN COMPOSITIONS” (MICROBIAL DISCOVERY GROUP, LLC, priority 2022, published 2024).
Values after ≈ are worked out from the molar mass of the structure shown. Where two headings read alike, the source gives them in different places.

What was measured:
[1] = tested on: Bacillus strain BC1 (NRRL No. B-67744); experiment: Antibiotic resistance, phenotypic MICs of medical antibiotics; assay type: cell-based, Bacillus coagulans; details: for MIC: Bacillus
[2] = tested on: Bacillus strain (NRRL No. B-68053); experiment: Antibiotic resistance, Minimum Inhibitory Concentrations (MICs) Against Medical Antibiotics; assay type: cell-based, Bacillus subtilis
Text: (§1) The inventors have assessed resistance phenotypically. A bacterial strain is defined by EFSA as susceptible when its growth is inhibited at concentration of a specific antibiotic that is equal to or lower than the established cut-off value for that particular species. A bacterial strain is defined as resistant when it is able to grow at a concentration of a specific antibiotic that is higher than the established cut-off. We utilized both the EFSA and CLSI guidelines for determining susceptibility and resistance interpreted through their defined cut-off values.

[3] = tested on: Bacillus strain (NRRL No. B-68054); experiment: as above; assay type: cell-based, Bacillus subtilis
Text: as §1, with “The inventors” for “We”

[4] = NRRLB67744, MIC of the antibiotic against the strain, triplicate, read-out: NRRL No. B-67744 ug/ml (triplicate)
[5] = Bacillus, NRRLB68053; read-out: NRRL No. B-68053 ug/mL (triplicate), Minimum Inhibitory Concentration
[6] = Bacillus, NRRLB68054; read-out: NRRL No. B-68054 ug/mL (triplicate), Minimum Inhibitory Concentration
[7] = Bacillus, NRRLB68053, read-out: NRRL No. B-68053 ug/mL (triplicate), Minimum Inhibitory Concentration
[8] = Bacillus, NRRLB68054, read-out: NRRL No. B-68054 ug/mL (triplicate), Minimum Inhibitory Concentration

Compound	MIC [1, 4]	MIC [2, 5]	MIC [3, 6]	also measured
O=C(N[C@H](CO)[C@H](O)c1ccc([N+](=O)[O-])cc1)C(Cl)Cl [Chloramphenicol]	0.016 µg/mL	3 µg/mL (≈ 9.28 µM)	1.5 µg/mL (≈ 4.64 µM)	
O=C(O)c1cn(C2CC2)c2cc(N3CCNCC3)c(F)cc2c1=O [Ciprofloxacin]		0.94 µg/mL (≈ 2.84 µM)		
CCC[C@@H]1C[C@@H](C(=O)N[C@@H]([C@H]2O[C@H](SC)[C@H](O)[C@@H](O)[C@H]2O)[C@H](C)Cl)N(C)C1 [Clindamycin]	0.016 µg/mL	1 µg/mL (≈ 2.35 µM)	0.5 µg/mL (≈ 1.18 µM)	
CC[C@H]1OC(=O)[C@H](C)[C@@H](O[C@H]2C[C@@](C)(OC)[C@@H](O)[C@H](C)O2)[C@H](C)[C@@H](O[C@@H]2O[C@H](C)C[C@H](N(C)C)[C@H]2O)[C@](C)(O)C[C@@H](C)C(=O)[C@H](C)[C@@H](O)[C@]1(C)O [Erythromycin]	0.125 µg/mL	0.064 µg/mL (≈ 0.0872 µM)	0.047 µg/mL (≈ 0.064 µM)	
NC[C@H]1O[C@H](O[C@H]2[C@H](O)[C@@H](O[C@H]3O[C@H](CO)[C@@H](O)[C@H](N)[C@H]3O)[C@H](N)C[C@@H]2N)[C@H](O)[C@@H](O)[C@@H]1O [Kanamycin]	0.016 µg/mL	0.75 µg/mL (≈ 1.55 µM)	0.75 µg/mL (≈ 1.55 µM)	
CC(=O)NC[C@H]1CN(c2ccc(N3CCOCC3)c(F)c2)C(=O)O1 [Linezolid]	0.75 µg/mL	1 µg/mL (≈ 2.96 µM)	0.25 µg/mL (≈ 0.741 µM)	
CO[C@H]1/C=C/O[C@@]2(C)Oc3c(C)c(O)c4c(O)c(c(/C=N/N5CCN(C)CC5)c(O)c4c3C2=O)NC(=O)/C(C)=C\C=C\[C@H](C)[C@H](O)[C@@H](C)[C@@H](O)[C@@H](C)[C@H](OC(C)=O)[C@@H]1C [Rifampin]	0.25 µg/mL	0.25 µg/mL (≈ 0.304 µM)	0.5 µg/mL (≈ 0.608 µM)	
[H]/N=C(/N)N[C@H]1[C@H](O)[C@@H](O)[C@H](O[C@@H]2O[C@@H](C)[C@](O)(C=O)[C@H]2O[C@@H]2O[C@@H](CO)[C@H](O)[C@@H](O)[C@@H]2NC)[C@@H](N/C(N)=N\[H])[C@@H]1O [Streptomycin]	1.5 µg/mL	8 µg/mL (≈ 13.8 µM)	4 µg/mL (≈ 6.88 µM)	
CN(C)[C@@H]1C(O)=C(C(N)=O)C(=O)[C@@]2(O)C(O)=C3C(=O)c4c(O)cccc4[C@@](C)(O)[C@H]3C[C@@H]12 [Tetracycline]	1.25 µg/mL	12 µg/mL (≈ 27 µM)	6 µg/mL (≈ 13.5 µM)	
CN(C)c1cc(NC(=O)CNC(C)(C)C)c(O)c2c1C[C@H]1C[C@H]3[C@H](N(C)C)C(O)=C(C(N)=O)C(=O)[C@@]3(O)C(O)=C1C2=O [Tigecycline]				MIC ([1]; NRRLB67744, read-out: NRRL No. B-67744 ug/ml (triplicate)): 0.064 µg/mL (≈ 0.109 µM); MIC [2, 7]: 0.094 µg/mL (≈ 0.161 µM); MIC [3, 8]: 0.064 µg/mL (≈ 0.109 µM)
CN[C@H](CC(C)C)C(=O)N[C@H]1C(=O)N[C@@H](CC(N)=O)C(=O)N[C@H]2C(=O)N[C@H]3C(=O)N[C@H](C(=O)N[C@H](C(=O)O)c4cc(O)cc(O)c4-c4cc3ccc4O)[C@H](O)c3ccc(c(Cl)c3)Oc3cc2cc(c3O[C@@H]2O[C@H](CO)[C@@H](O)[C@H](O)[C@H]2O[C@H]2C[C@](C)(N)[C@H](O)[C@H](C)O2)Oc2ccc(cc2Cl)[C@H]1O [Vancomycin]	0.38 µg/mL			MIC [2, 7]: 0.5 µg/mL (≈ 0.345 µM); MIC [3, 8]: 0.75 µg/mL (≈ 0.518 µM)
Gentamicin				NRRL No. B-67744 ug/ml (triplicate) ([1]; MIC of the antibiotic against the strain, triplicate): 0.023 µg/mL; NRRL No. B-68053 ug/mL (triplicate), Minimum Inhibitory Concentration ([2]; triplicate): 0.094 µg/mL; NRRL No. B-68054 ug/mL (triplicate), Minimum Inhibitory Concentration ([3]; triplicate): 0.125 µg/mL
